Legend:
Format in all cases: cell-based
[1] = tested on: T lymphocytes isolated from RyR163C mice; assay: Fura-2 intracellular calcium imaging in T lymphocytes from RyR163C mice; details: for Δ1/Δ2 ratio: preincubated, fura-2
Source text: (§1) FIGS. 3A and 3B show intracellular calcium measurements in T lymphocytes. […] Shown are average traces recorded from at least 20 cells in one representative experiment.

[2] = tested on: T lymphocytes isolated from control WT mice; assay: Fura-2 intracellular calcium imaging in T lymphocytes from wild-type mice; details: SERCA blocker applied in about 0 mM extracellular calcium; WT cells, compared to 5×FAD and RyR163C
Source text: as §1

[3] = tested on: T lymphocytes isolated from 5×FAD mice; assay: Fura-2 intracellular calcium imaging in T lymphocytes from 5×FAD mice; details: SERCA blocker applied in about 0 mM extracellular calcium; 5×FAD T lymphocytes
Source text: as §1

O=C1CN(/N=C/c2ccc(-c3ccc([N+](=O)[O-])cc3)o2)C(O)=N1 [dantrolene]
basal intracellular calcium levels ([1]; dantrolene 50 μM): reducing
responses to thapsigargin ([1]; dantrolene 50 μM): increasing
Δ1/Δ2 ratio ([1]; dantrolene 50 μM): reduced

C/C=C(/C)C(=O)O[C@H]1C(C)=C2[C@H]([C@@H]1OC(=O)CCCCCCC)[C@@](C)(OC(C)=O)C[C@H](OC(=O)CCC)[C@@]1(O)[C@H]2OC(=O)[C@@]1(C)O [thapsigargin]
intracellular calcium transients evoked (Δ2=F3−F2) [2]: larger
intracellular calcium transients evoked (Δ2=F3−F2) ([1]; SERCA blocker applied in about 0 mM extracellular calcium): barely detectable
intracellular calcium transients evoked (Δ2=F3−F2) [3]: barely detectable

ryanodine
basal intracellular calcium levels ([1]; ryanodine 800 μM): reducing
responses to thapsigargin ([1]; ryanodine 800 μM): increasing
Δ1/Δ2 ratio ([1]; ryanodine 800 μM): reduced

Source: patent US20210311075A1, “METHODS FOR DETECTING DISORDERS RELATED TO CALCIUM DISCHARGE FROM INTRACELLULAR STORES” (The Regents of the University of California, priority 2017, published 2021)
